Results: patent US11731985B2, “Compositions and methods for treating cancer” (Hb Therapeutics Inc., priority 2018, dated 2023)
Read-outs that look alike come from different tables or passages of the source. Where a SMILES comes first, the peptide text is derived from it. The star is where a group is joined. Cbz = O=C(OCc1ccccc1)*

Columns and labels:
LN229 cells = assay: Cell viability assay, LN229 cells; assay type: cell-based, human; details: read-out: Inhibition of Cancer Cell Growth (IC50)
Description: Each of the compounds was used to treat the cancer LN229 cells and examined first by western and dot blot assays for the degradation of SUMO1 protein and then by cell viability assay for the IC50 values of anticancer activity.
(§1) LN229 cell were treated with a series of dilutions of CPD1 and examined by cell viability assay for cell growth inhibition (FIG. 2B). […] Therefore, CPD1 acts as the degrader of SUMO1 protein and inhibitor of SUMO1 conjugation in cancer cells.

SUMO1 = SUMO1 (Homo sapiens, UniProt P63165); assay: Western and dot blot assays for SUMO1 conjugation and SUMO1 protein levels in LN229 cells; assay type: cell-based; parameters: analyzed by western blotting for detection of the conjugate and free form of SUMO1 protein and dot blotting for total levels of SUMO1 protein; endogenous in cells; host or cells: LN229 glioblastoma cells; details: LN229 cells treated with CPD1, followed by MG132
Description: FIG. 2A illustrates how the glioblastoma LN229 cell line was treated with each of compounds of the National Cancer Institute (NCI) Diversity Set IV library and analyzed by western blot assays using SUMO1, SUMO2/3, UB and β-actin antibodies.
as §1
The non-conjugated Flag-tagged SUMO1 (Flag-SUMO1-GV) and the HA-tagged wild type (WT) UB (HA-UB-WT) were co-transfected in LN229 cells.

[1] = Homo sapiens, LN-229, LN229 cells

Chain of SUMO1 (P63165 1-97 limits assumed): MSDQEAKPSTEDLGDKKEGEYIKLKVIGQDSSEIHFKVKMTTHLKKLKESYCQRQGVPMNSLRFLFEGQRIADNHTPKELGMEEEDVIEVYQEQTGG

## N#Cc1cc(NC(=O)Nc2nc3ccc(Cl)cc3s2)ccc1Cl [Compound 85]
LN229 cells; [1]
  IC50: ≤ 5 µM

## Cn1ncc2ccc(NC(=O)Nc3nc4ccc(C#N)cc4s3)cc21 [Compound 111]
LN229 cells; [1]
  IC50: > 20 µM

## N#Cc1cccc(NC(=O)Nc2nc3c(Cl)cc(Cl)cc3s2)c1 [Compound 101]
LN229 cells; [1]
  IC50: ≤ 5 µM

## COc1cccc(NC(=O)Nc2nc3ccc(C#N)cc3s2)n1 [Compound 68]
LN229 cells; [1]
  IC50: > 20 µM

## N#Cc1cc(NC(=O)Nc2nc3ccc(Cl)cc3s2)ccc1F [Compound 92]
LN229 cells; [1]
  IC50: ≤ 5 µM

## O=C(Nc1cccc(Cl)c1)Nc1nc2ccc([N+](=O)[O-])cc2s1 [Compound 19]
LN229 cells; LN229 cells
  IC50: > 20 µM

## N#Cc1ccc(F)c(NC(=O)Nc2nc3ccc(Cl)cc3s2)c1 [Compound 96]
LN229 cells; [1]
  IC50: ≤ 5 µM

## COc1cc(NC(=O)Nc2nc3ccc(C#N)cc3s2)ccn1 [Compound 71]
LN229 cells; [1]
  IC50: ≤ 5 µM

## NC(=O)C1CCc2nc(NC(=O)Nc3cccc(Cl)c3)sc2C1 (stereo not shown) [Compound 90, 2-[(3-chlorophenyl)carbamoylamino]-4,5,6,7-tetrahydro-1,3-benzothiazole-6-carboxamide]
LN229 cells; [1]
  IC50: > 20 µM

## N#Cc1ccc2nc(NC(=O)Nc3cccc4ccccc34)sc2c1 [Compound 109]
LN229 cells; [1]
  IC50: > 20 µM

## N#Cc1ccc(NC(=O)Nc2nc3ccc(C(F)(F)F)cc3s2)cc1C#N [Compound 13]
LN229 cells; [1]
  IC50: > 20 µM

## N#Cc1ccc(NC(=O)Nc2nc3ccc(Cl)cc3s2)cc1Cl [Compound 118]
LN229 cells; [1]
  IC50: ≤ 5 µM

## CC(C)C[C@@H](C=O)NC(=O)[C@H](CC(C)C)NC(=O)[C@H](CC(C)C)NC(=O)OCc1ccccc1 [MG132, reference compound] (Cbz-Leu-Leu-Leu-aldehyde)
SUMO1
  effect of MG132 on CPD1-induced degradation of SUMO1 protein: prevents CPD1-induced degradation of SUMO1 protein

## N#Cc1ccc(Cl)c(NC(=O)Nc2nc3ccc(Cl)cc3s2)c1 [Compound 86]
LN229 cells; [1]
  IC50: ≤ 5 µM

## N#Cc1ccc(NC(=O)Nc2nc3ccc(Cl)cc3s2)cc1C#N [Compound 91]
LN229 cells; [1]
  IC50: ≤ 5 µM

## O=C(Nc1cccc(Cl)c1)Nc1nc2ccc(Br)cc2s1 [Compound 21]
LN229 cells; [1]
  IC50: > 20 µM

## N#Cc1ccc(NC(=O)Nc2nc3ccc(Cl)cc3s2)cc1C(F)(F)F [Compound 119]
LN229 cells; [1]
  IC50: ≤ 5 µM

## CC(C)(C(=O)Nc1nc2ccc(C#N)cc2s1)c1ccccc1 [Compound 56]
LN229 cells; [1]
  IC50: > 20 µM

## N#Cc1cccc(NC(=O)Nc2nc3ccc(C#N)cc3s2)c1 [Compound 66]
LN229 cells; [1]
  IC50: ≤ 5 µM

## N#Cc1ccc2nc(NC(=O)Nc3ccccc3C(F)(F)F)sc2c1 [Compound 51]
LN229 cells; [1]
  IC50: ≤ 20 µM

## N#Cc1ccc(NC(=O)Nc2nc3ccc(C(F)(F)F)cc3s2)c(Cl)c1 [Compound 116]
LN229 cells; [1]
  IC50: ≤ 5 µM

## CS(=O)(=O)c1ccc2nc(NC(=O)Nc3cccc(C#N)c3)sc2c1 [Compound 114]
LN229 cells; [1]
  IC50: ≤ 20 µM

## Cc1ccc2nc(NC(=O)Nc3cccc(C#N)c3)sc2c1 [Compound 44]
LN229 cells; [1]
  IC50: > 20 µM

## O=C(Nc1cccc([N+](=O)[O-])c1)Nc1nc2ccc(Cl)cc2s1 [Compound 4]
LN229 cells; [1]
  IC50: ≤ 5 µM

## O=C(Nc1nc2ccccc2s1)Nc1ccccc1Cl [Compound 8]
LN229 cells; [1]
  IC50: > 20 µM

## O=C(Nc1nc2ccccc2s1)Nc1ccc([N+](=O)[O-])cc1Cl [Compound 9]
LN229 cells; [1]
  IC50: > 20 µM

## N#Cc1cc(F)cc(NC(=O)Nc2nc3ccc(Cl)cc3s2)c1 [Compound 105]
LN229 cells; [1]
  IC50: ≤ 5 µM

## N#Cc1ccc2nc(NC(=O)Nc3cccc(-c4ccc(F)cc4)c3)sc2c1 [Compound 32, 1-(6-cyano-1,3-benzothiazol-2-yl)-3-[3-(4-fluorophenyl)phenyl]urea]
LN229 cells; [1]
  IC50: ≤ 5 µM

## CCOC(=O)C1CCc2nc(NC(=O)Nc3cccc(Cl)c3)sc2C1 (stereo not shown) [Compound 80]
LN229 cells; [1]
  IC50: > 20 µM

## N#Cc1cccc(NC(=O)Nc2nc3c(s2)CNCC3)c1 [Compound 50]
LN229 cells; [1]
  IC50: ≤ 20 µM

## N#Cc1cccc(NC(=O)Nc2nc3ccc(Br)cc3s2)c1 [Compound 74]
LN229 cells; [1]
  IC50: ≤ 5 µM

## N#Cc1cc(F)cc(NC(=O)Nc2nc3ccc(C(F)(F)F)cc3s2)c1 [Compound 113, 1-(3-cyano-5-fluorophenyl)-3-[6-(trifluoromethyl)-1,3-benzothiazol-2-yl]urea]
LN229 cells; [1]
  IC50: ≤ 5 µM

## CN(C(=O)Nc1nc2ccc(C#N)cc2s1)c1ccccc1 [Compound 76]
LN229 cells; [1]
  IC50: > 20 µM

## N#Cc1ccc2nc(NC(=O)Nc3cccc(C(=O)OCCOCCN)c3)sc2c1 [Compound 112]
LN229 cells; [1]
  IC50: > 20 µM

## CC(C)(C)c1ccc(NC(=O)Nc2nc3ccc(C#N)cc3s2)cc1 [Compound 40]
LN229 cells; [1]
  IC50: > 20 µM

## CCc1ccc(NC(=O)Nc2nc3ccc(C#N)cc3s2)cc1 [Compound 39]
LN229 cells; LN229 cells
  IC50: ≤ 5 µM

## O=C(Nc1ccc(Cl)c(Cl)c1)Nc1nc2ccc([N+](=O)[O-])cc2s1 [Compound 2]
LN229 cells; [1]
  IC50: ≤ 5 µM

## N#Cc1ccc2nc(NC(=O)Nc3ccc(Br)cc3)sc2c1 [Compound 36]
LN229 cells; [1]
  IC50: ≤ 5 µM

## O=C(Nc1nc2cccc([N+](=O)[O-])c2s1)Nc1ccc(Cl)cc1F [Compound 16]
LN229 cells; [1]
  IC50: > 20 µM

## N#Cc1ccc2nc(NC(=O)Nc3ccc4ccccc4c3)sc2c1 [Compound 110]
LN229 cells; [1]
  IC50: ≤ 20 µM

## CC(C)(C)OC(=O)NCCOCCOc1cccc(NC(=O)Nc2nc3ccc(C#N)cc3s2)c1 [Compound 120]
LN229 cells; LN229 cells
  IC50: ≤ 5 µM

## N#Cc1ccc2nc(NC(=O)Nc3cccc(Br)c3)sc2c1 [Compound 31, 1-(3-bromophenyl)-3-(6-cyano-1,3-benzothiazol-2-yl)urea]
LN229 cells; [1]
  IC50: ≤ 5 µM

## O=C(Nc1cccc(Cl)c1)Nc1nc2ccc([N+](=O)[O-])cc2s1 [Compound 3]
LN229 cells; LN229 cells
  IC50: ≤ 5 µM

## N#Cc1cccc(NC(=O)Nc2nc3ccc(Cl)cc3s2)c1F [Compound 95]
LN229 cells; [1]
  IC50: > 20 µM

## N#Cc1cccc(NC(=O)Nc2nc3ccc(C(F)(F)F)cc3s2)c1 [Compound 100]
LN229 cells; [1]
  IC50: ≤ 5 µM

## CC(C)(C)OC(=O)N[C@H]1CCc2nc(NC(=O)Nc3cccc(C#N)c3)sc2C1 [Compound 63]
LN229 cells; [1]
  IC50: ≤ 20 µM

## N#Cc1cc(Cl)cc(NC(=O)Nc2nc3ccc(Cl)cc3s2)c1 [Compound 93]
LN229 cells; [1]
  IC50: ≤ 5 µM

## CN(C)C1CCc2nc(NC(=O)Nc3cccc(C#N)c3)sc2C1 (stereo not shown) [Compound 69]
LN229 cells; [1]
  IC50: ≤ 20 µM

## N#Cc1cccc(NC(=O)Nc2nc3ccc(OC(F)(F)F)cc3s2)c1 [Compound 103]
LN229 cells; [1]
  IC50: ≤ 5 µM

## Cc1ccc(C(C)C(=O)Nc2nc3ccc(C#N)cc3s2)cc1 (stereo not shown) [Compound 55]
LN229 cells; [1]
  IC50: ≤ 20 µM

## N#Cc1ccc2nc(NC(=O)NCc3ccccc3)sc2c1 [Compound 73]
LN229 cells; [1]
  IC50: ≤ 20 µM

## N#Cc1cccc(NC(=O)Nc2nc3c(s2)CC(C(N)=O)CC3)c1 (stereo not shown) [Compound 89]
LN229 cells; [1]
  IC50: > 20 µM
